According to paper PMC12881681 (Molecular Pharmacology, 2025):
Where two headings read alike, the source gives them in different places.

Experiments:
[1] = Pharmacokinetics study in mice: erlotinib pretreatment, carbazeran and 4-oxo-carbazeran; format: in vivo, BALB/c mice; conditions: for AUC0-∞ / Cmax / Tmax / AUC(0-inf): blood; for AUC0-∞ / Cmax / Tmax / MRT0-∞ / AUC(0-inf) / CL/F / MRT inf: carbazeran 10 mg/kg p.o.; for CL/F: read-out: Apparent oral clearance (CL/F) (converted); for MRT inf: read-out: MRT0-∞
Experimental: BALB/c mice (male, ∼8 weeks old) were purchased and housed at the Biological Resource Centre, Agency for Science, Technology and Research (A∗STAR). The experimental protocol was approved by the A∗STAR Institutional Review Board. […] Blood (12.5 μL) was drawn from the tail vein (with a needle prick) at various times (0.25, 0.5, 0.75, 1, 2, 3, 4, 6, and 8 hours) after carbazeran dosing. The blood samples were diluted 2 times with 12.5 μL of water. Acetonitrile containing the internal standard (carbazeran-d4, 4 nM in 75 μL acetonitrile and 3 nM in final sample volume of 100 μL) was added to the blood samples to precipitate proteins. […] Blank and standard calibration samples were prepared from control mice that were not treated with any chemicals. Pharmacokinetic data were analyzed by noncompartmental analysis using Phoenix WinNonlin 6.3 (Certara).
At the end of the last blood collection (8 hour post-carbazeran dosing), the mice were sacrificed. […] The tissue samples were homogenized, and a 12.5 μL aliquot of the homogenate was diluted with an equal volume of water. Acetonitrile containing the internal standard (carbazeran-d4, 4 nM in 75 μL acetonitrile and 3 nM in final sample volume of 100 μL) was added to the diluted tissue samples (25 μL) to precipitate the proteins.

human recombinant AOX1 = molecular target: T1, human recombinant AOX1 (Homo sapiens, UniProt Q06278); assay: Time-dependent inactivation of carbazeran 4-oxidation by human recombinant AOX1; format: biochemical; conditions: each 10 μM (raloxifene 0.02 μM), 30-minute preincubation, vs vehicle control without preincubation
T1 construct: purchased Cypex Ltd CYP150
T1 sequence (Q06278 1-1338): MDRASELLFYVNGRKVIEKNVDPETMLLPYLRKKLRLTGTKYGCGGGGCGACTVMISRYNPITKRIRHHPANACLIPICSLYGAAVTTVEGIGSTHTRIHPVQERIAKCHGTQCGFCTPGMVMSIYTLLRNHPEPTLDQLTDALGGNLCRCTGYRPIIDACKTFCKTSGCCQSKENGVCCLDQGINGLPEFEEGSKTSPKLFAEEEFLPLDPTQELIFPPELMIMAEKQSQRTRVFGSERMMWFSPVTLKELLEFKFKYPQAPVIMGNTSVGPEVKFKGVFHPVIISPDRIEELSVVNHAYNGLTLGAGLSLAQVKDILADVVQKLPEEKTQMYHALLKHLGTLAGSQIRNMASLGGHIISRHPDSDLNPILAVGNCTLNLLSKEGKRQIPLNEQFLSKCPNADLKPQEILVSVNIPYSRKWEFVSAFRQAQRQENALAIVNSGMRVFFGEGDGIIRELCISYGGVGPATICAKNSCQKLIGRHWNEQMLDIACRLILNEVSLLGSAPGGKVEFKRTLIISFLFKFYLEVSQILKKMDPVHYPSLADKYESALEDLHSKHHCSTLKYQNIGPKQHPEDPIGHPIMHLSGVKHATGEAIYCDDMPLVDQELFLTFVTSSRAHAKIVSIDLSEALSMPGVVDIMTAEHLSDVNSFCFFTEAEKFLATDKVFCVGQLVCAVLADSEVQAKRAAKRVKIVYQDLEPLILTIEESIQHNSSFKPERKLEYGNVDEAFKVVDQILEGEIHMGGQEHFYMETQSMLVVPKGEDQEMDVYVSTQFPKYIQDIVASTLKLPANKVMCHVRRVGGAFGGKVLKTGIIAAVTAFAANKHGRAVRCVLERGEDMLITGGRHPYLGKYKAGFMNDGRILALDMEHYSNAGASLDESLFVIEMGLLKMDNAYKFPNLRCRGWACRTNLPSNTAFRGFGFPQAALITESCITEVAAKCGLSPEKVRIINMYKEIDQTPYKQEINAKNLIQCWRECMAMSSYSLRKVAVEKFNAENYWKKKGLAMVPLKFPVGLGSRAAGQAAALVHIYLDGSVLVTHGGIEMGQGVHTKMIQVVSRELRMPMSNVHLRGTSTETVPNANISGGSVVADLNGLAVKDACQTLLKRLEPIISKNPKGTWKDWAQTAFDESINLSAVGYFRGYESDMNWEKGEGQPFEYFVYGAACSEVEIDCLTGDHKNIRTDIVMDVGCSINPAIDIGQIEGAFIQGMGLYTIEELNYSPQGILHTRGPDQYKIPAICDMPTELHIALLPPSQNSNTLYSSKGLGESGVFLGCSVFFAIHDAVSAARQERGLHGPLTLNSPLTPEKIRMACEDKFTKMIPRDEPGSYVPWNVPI
Experimental: (§1) Carbazeran 4-oxidation and O^6-benzylguanine 8-oxidation were deployed as AOX1-selective catalytic markers.[27] The assay conditions (amount of cytosolic protein, incubation time, and substrate concentration) for carbazeran 4-oxidation catalyzed by human recombinant AOX1 and human/rat/mouse liver cytosols were optimized previously.[7]^,[25]
(§2) Enzymatic reaction was initiated by adding human liver cytosol (100 μg). After the specified preincubation duration, an aliquot (10 μL) of the preincubation mixture was transferred to 190 μL of a prewarmed (for 3 minutes at 37 °C) secondary incubation mixture (total volume of 200 μL) containing potassium phosphate buffer and carbazeran (15 μM) or O^6-benzylguanine (150 μM), which yielded a 20-fold dilution of the primary incubation mixture. The secondary incubation mixture was incubated for 5 minutes at 37 °C before the enzymatic reaction was terminated with 200 μL of ice-cold acetonitrile containing carbazeran-d4 (2.5 nM final concentration; internal standard for 4-oxo-carbazeran) or tolbutamide (25 nM final concentration; internal standard for 8-oxo-O^6-benzylguanine). Each sample was immediately mixed by vortex, placed on ice, centrifuged at 16,000g for 15 minutes at 4 °C and stored at –30 °C until ultra-high performance liquid chromatography–tandem mass spectrometry (UPLC-MS/MS) analysis. For enzyme inactivation assays involving rat and mouse liver cytosol and recombinant AOX1 assays, the experimental conditions were similar to those of human liver cytosol, except that the amount of cytosolic protein was 200 μg (rat) and 150 μg (mouse), respectively, and the incubation time of the secondary incubation mixture was 60 minutes. For the recombinant AOX1 enzyme assay, the amount of enzyme was 100 μg, the incubation time of the secondary incubation mixture was 15 minutes, and the total volume of the primary and secondary incubation mixtures was reduced to 100 μL.
An aliquot (10 μL) of the primary incubation mixture was transferred to a secondary incubation mixture containing carbazeran (15 μM) and incubated for (A) 180, (B) 5, or (C, D) 120 minutes.

[2] = molecular target: T2, human liver cytosolic AOX1 (Homo sapiens, UniProt Q06278); assay: Effects of a competing AOX1 substrate and a competitive AOX1 inhibitor on AOX1 inactivation; format: biochemical; parameters: Enzymatic reaction was initiated by adding human liver cytosol (100 μg); tissue Corning, Inc. (Gentest brand) 452115; host or cells: human liver cytosol, pool of 150 donors; conditions: 120 and 240 μM, human liver cytosol (data not shown)
T2 sequence (Q06278 1-1338): T1 sequence (Q06278 1-1338)
Experimental: The molar ratio of O^6-benzylguanine (120, 240, and 480 μM) to 3-vinylerlotinib (10 μM) was 12, 24, and 48, O^6-benzylguanine to 4′-methylerlotinib (3 μM) was 40, 80, and 160, and O^6-benzylguanine to 2-methylerlotinib (1 μM) was 120, 240, and 480, respectively. […] Each standard incubation mixture was subjected to the same procedures as described in Enzyme Inactivation Experiments. The residual AOX1 enzyme activity was determined by the carbazeran 4-oxidation or O^6-benzylguanine 8-oxidation assay.

[3] = molecular target: T2, human liver cytosolic AOX1; assay: Partition ratio determination (titration, human liver cytosol); format: biochemical; parameters: Enzymatic reaction was initiated by adding human liver cytosol (100 μg); tissue Corning, Inc. (Gentest brand) 452115; host or cells: human liver cytosol, pool of 150 donors
Experimental: The enzyme kinetic experiments were conducted as described above. The incubation was allowed to proceed until saturation of enzyme has been reached (6 or 18 minutes, as specified in each figure legend). Carbazeran 4-oxidation was plotted against the ratio of inactivator concentration to AOX1 protein concentration in the incubation mixture of 200 μL. The specific lot of human liver cytosol (#38292) used in this study contained 1.05 ± 0.01 pmol/μL (mean ± SD) of AOX1 protein, as assessed by capillary nanoproteomic immunoassay.[27] The turnover number was the extrapolation of the intercept of the 2 linear regression lines to the x-axis, which was determined by solving the 2 linear regression equations. The partition ratio was calculated by subtracting the turnover number by 1, assuming 1:1 stoichiometry between the inactivator and the enzyme.[29]

[4] = molecular target: T2, human liver cytosolic AOX1; assay: Enzyme inactivation of human liver cytosolic AOX1-mediated carbazeran 4-oxidation
Experimental: as §1, §2
Preliminary experiments were performed to optimize the incubation time and concentration of an inactivator to ensure a log-linear decrease in enzyme activity over time and that the kobs versus inactivator concentration plot reaches a plateau for the determination of the kinact value. The observed first-order rate constant for inactivation (kobs), maximal inactivation rate constant (kinact), half-maximal inactivation concentration (KI), and the time required for half of the enzyme molecules to be inactivated (t1/2) were calculated as described in our previous publication.[28]

[5] = molecular target: T2, human liver cytosolic AOX1; format: biochemical; parameters: Enzymatic reaction was initiated by adding human liver cytosol (100 μg); tissue Corning, Inc. (Gentest brand) 452115; host or cells: human liver cytosol, pool of 150 donors; conditions: potassium ferricyanide 2 mM, 0 or 6 min preincubation
Experimental: The residual AOX1 enzyme activity was determined by the carbazeran 4-oxidation assay.
A test chemical at a concentration described above was incubated with human liver cytosol (100 μg protein) at 37 °C for 0 or 6 minutes. […] After 10-minute incubation, an aliquot (50 μL) of the […] (total volume of 200 μL) containing potassium phosphate buffer and carbazeran (15 μM), which yielded a 4-fold dilution of the secondary incubation mixture. The residual AOX1 enzyme activity was determined as described above.

[6] = erlotinib 100 mg/kg p.o. 2 h before
[7] = male, BALB/c, mouse, whole blood, po, 10 mg/kg, Control (vehicle pretreatment)
[8] = male, BALB/c, mouse, whole blood, po, 10 mg/kg, erlotinib 100 mg/kg p.o. 2 h before
[9] = human liver cytosol, carbazeran 4-oxidation

CCNC(=O)OC1CCN(c2n[nH]c(=O)c3cc(OC)c(OC)cc23)CC1 [4-Oxo-Carbazeran, 4-oxo-carbazeran]
Ratio of AUC0-∞ (metabolite) to AUC0-∞ (parent) ([1]; Control (vehicle pretreatment)): 0.31 ± 0.06 | Ratio of AUC0-∞ (metabolite) to AUC0-∞ (parent) ([1]; Control (vehicle pretreatment), listed as 4-oxo-carbazeran): 0.31 | AUC0-∞ ([1]; Control (vehicle pretreatment)): 0.78 ± 0.23 µM·h | Cmax ([1]; Control (vehicle pretreatment)): 920 ± 390 nM | Tmax ([1]; Control (vehicle pretreatment)): 19.2 ± 7.2 min | AUC0-∞ [1, 6]: 0.027 ± 0.009∗∗∗∗ μM.h | Cmax [1, 6]: 8 ± 3 nM | Tmax [1, 6]: 27.6 ± 16.2 min | MRT0-∞ ([1]; Control (vehicle pretreatment)): 0.98 ± 0.19 h | MRT0-∞ [1, 6]: 8.98 ± 8.73∗ h | Ratio of AUC0-∞ (metabolite) to AUC0-∞ (parent) ([1]; erlotinib 100 mg/kg p.o. 2 h before carbazeran): 0.007 ± 0.003∗∗∗∗

CCNC(=O)OC1CCN(c2nncc3cc(OC)c(OC)cc23)CC1 [Carbazeran, carbazeran]
AUC(0-inf) [1, 7]: 2.52 ± 0.46 µM·h | Cmax [1, 7]: 3470 ± 1390 nM | AUC(0-inf) [1, 8]: 4.6 ± 2.02 µM·h | Cmax [1, 8]: 3530 ± 2180 nM | CL/F [1, 7]: 188 mL/min/kg | MRT inf [1, 7]: 79.2 ± 26.4 min | CL/F [1, 8]: 114 mL/min/kg | MRT inf [1, 8]: 139 ± 45.6 min | Tmax ([1]; male, BALB/c, mouse, whole blood, po, Control (vehicle pretreatment), read-out: Tmax): 17.4 ± 5.4 min

Oc1cc2ncnc(Nc3ccc(F)c(Cl)c3)c2cc1OCCCN1CCOCC1 [O-desmethylgefitinib]
decrease in carbazeran 4-oxidation (human recombinant AOX1): did not decrease

COc1cc2ncnc(Nc3ccc(F)c(Cl)c3)c2cc1O [O-desmorpholinopropylgefitinib]
decrease in carbazeran 4-oxidation (human recombinant AOX1): did not decrease

Nc1nc(OCc2ccccc2)c2nc[nH]c2n1 [O^6-benzylguanine]
effect of O^6-benzylguanine alone on carbazeran 4-oxidation [2]: did not affect the activity

CCc1cccc(Nc2ncnc3cc(OCCOC)c(OCCOC)cc23)c1 [Tetrahydroerlotinib, tetrahydroerlotinib]
Turnover Number ([3]; human liver cytosol): No inactivation | Partition Ratio ([3]; turnover number minus 1): No inactivation | KI ([4]; half-maximal inactivation concentration, human liver cytosol, carbazeran 4-oxidation): No inactivation | kinact ([4]; human liver cytosol 100 μg, carbazeran 15 μM, 37 °C): No inactivation | decrease in carbazeran 4-oxidation ([4]; human liver cytosol, 10 μM (raloxifene 0.02 μM), 30-minute preincubation): did not decrease | decrease in carbazeran 4-oxidation ([4]; human liver cytosol, 50 μM, 120 minutes preincubation): did not decrease | Inactivation t1/2 [4, 9]: No inactivation | kinact/KI [4, 9]: No inactivation | KI,u ([4]; unbound, KI,u = fu × KI, fu at 10 μM in human liver cytosol): No inactivation | effect of coincubation or postincubation with potassium ferricyanide on AOX1 inactivation [5]: not changed
